Data as given in US20260077018A1, “TREATMENT OF MILD TRAUMATIC BRAIN INJURY” (OXEIA BIOPHARMACEUTICALS, INC., priority 2022, published 2026).
No end group written: not given here. *: point of attachment. Octanoyl = CCCCCCCC(=O)*

Test system: persistently symptomatic concussion patients
Assay: Phase 2 study of OXE-103 in persistently symptomatic concussion: PCSS symptom scoring
Format: in vivo, human
Details: for PCSS symptom balance_problems / PCSS symptom difficulty_concentrating / PCSS symptom difficulty_remembering / PCSS symptom dizziness / PCSS symptom drowsiness / PCSS symptom fatigue / PCSS symptom feeling_in_a_fog / PCSS symptom feeling_more_emotional / PCSS symptom feeling_slowed_down / PCSS symptom headache / PCSS symptom irritability / PCSS symptom nausea / PCSS symptom neck_pain / PCSS symptom nervous_anxious / PCSS symptom numbness_or_tingling / PCSS symptom sadness / PCSS symptom sensitivity_to_light / PCSS symptom sensitivity_to_noise / PCSS symptom sleeping_less_than_usual / PCSS symptom sleeping_more_than_usual / PCSS symptom trouble_falling_asleep / PCSS symptom visual_problems / PCSS symptom vomiting: OXE-103 Treated, aggregated; for 20% Responders - PCSS: Number of Responders / 20% Responders - PCSS: Responder % / 30% Responders - PCSS: Number of Responders / 30% Responders - PCSS: Responder %: Treated, 13 subjects
From the text: Describe the change in symptom burden in sub-acute concussion for the two groups. A maximum of 50 subjects are enrolled, but recruiting stops if each arm has 20 participants, diagnosed with persistent concussion symptoms 28 days post injury who complete the study. Patients are randomized 1:1 to placebo versus OXE-103. The Post-Concussion Symptom Score questionnaire (PCSS) is used as an overall measure of symptom burden. The number of symptoms and severity at each time point are also measures of interest. In addition, subjects are asked to identify and rank the 4 most bothersome symptoms. Without being bound by theory, it is hypothesized that changes in these most bothersome symptoms have a higher correlation to improvement in quality of life. A visual comparison of change in the two groups is made. A change of 20% is considered to be clinically meaningful. This primary aim describes the change in symptoms between day 1 and day 14.
Described herein is a randomized, double-blind, placebo-controlled design where 40 subjects will be randomized to either a placebo cohort or a treatment with OXE-103 cohort. We randomize using the RedCap database. The database is set up to share randomization allocation only with the investigational pharmacy. All subjects are consented and begin the screening period within 28 days post-injury. There is a 7-day screening period prior to randomization and commencement of study treatment to allow for assessment of stability of symptom burden. This screening period must start no later than 28 days post-injury. Starting with Day 1 (end of screening period), the treatment cohort receives OXE-103 40ug/kg SC twice daily by self-injection and the placebo group receives a placebo injection SC twice daily. Study drug and placebo are maintained and dispensed by Investigational Pharmacy. Subjects receive an 8-day supply of syringes pre-loaded with OXE-103 or placebo. Each cohort receives the 2nd set of syringes with OXE-103 or placebo at the day 7 visit. No therapies other than OXE-103 are administered during the 14-day treatment period to either cohort. After completion of 14 days of either placebo or OXE-103 treatment, starting with the Day 14 visit, other medications and therapies can be initiated for either cohort as needed.
Symptom reduction (AIM 1): Our primary goal is to describe the change in number of symptoms and/or severity in sub-acute concussion with treatment with OXE-103 using the PCSS at days 1 and 15. We will also collect data at days 21 and 44 to potentially describe long term changes and potential lasting effect (AIM 4).
Subjects complete the PCSS at the following timepoints[17]: upon signing consent (score must 20) (day −7), mid-way through the screening period (day −3), prior to assignment of a treatment cohort (score must 20) (day 1), as well as days 4, 8, 11, 15, 21 and 44. Subjects are instructed to record their symptoms at the same time of day for each assessment timepoint. There can be a two-hour window either way. (e.g. 12 PM+/−2 hrs.) The PCSS is recorded via a RedCap survey. The PCSS is a self-reported assessment of 22 symptoms using a Likert-type scale ranging from 0-6, with 0 indicating no difficulty with the outlined symptom and ratings of 1-6 representing mild-to-severe difficulty with the symptom. The reliability and validity of the PCSS are well documented We also ask subjects to rank their 4 most burdensome symptoms (4MBS) at Day 1 and we analyze these separately. As stated in the Specific Aims the purpose of this study is to collect data that would further refine clinical endpoints that could be used for larger Phase 2 studies and possibly lead to the establishment of pivotal endpoints for Phase 3 registration trials. The 22 symptom PCSS assessment is designed to cover the full spectrum of concussion related symptoms across cognitive, emotional and somatic domains. In that regard the PCSS is particularly useful for diagnosis and monitoring recovery of patients post injury. […]

For “ghrelin (GSS(Octanoyl)FLSPEHQRVQQRKESKKPPAKLQPR; UniProt Q9UBU3 24-51, looked up) [OXE-103, naturally occurring peptide comprising 28 amino acids that include an N-octanoyl group at the 3-position of serine]”, the “PCSS symptom balance_problems” value (Day 1) was 30, the “PCSS symptom difficulty_concentrating” value (Day 1) was 46 and the “PCSS symptom difficulty_remembering” value (Day 1) was 48. For the same substance, the PCSS symptom dizziness (Day 1) was 37, the PCSS symptom drowsiness (Day 1) was 38 and the PCSS symptom fatigue (Day 1) was 43. The “PCSS symptom feeling_in_a_fog” value (Day 1) was 46, the “PCSS symptom feeling_more_emotional” value (Day 1) was 31 and the “PCSS symptom feeling_slowed_down” value (Day 1) was 46. For the same substance, the PCSS symptom headache (Day 1) was 37, the PCSS symptom irritability (Day 1) was 35 and the PCSS symptom nausea (Day 1) was 18. The “PCSS symptom neck_pain” value (Day 1) was 38, the “PCSS symptom nervous_anxious” value (Day 1) was 35 and the “PCSS symptom numbness_or_tingling” value (Day 1) was 16. For the same substance, the PCSS symptom sadness (Day 1) was 28, the “PCSS symptom sensitivity_to_light” value (Day 1) was 35 and the “PCSS symptom sensitivity_to_noise” value (Day 1) was 36. For the same substance, the “PCSS symptom sleeping_less_than_usual” value (Day 1) was 15, the “PCSS symptom sleeping_more_than_usual” value (Day 1) was 24 and the “PCSS symptom trouble_falling_asleep” value (Day 1) was 37. For the same substance, the “PCSS symptom visual_problems” value (Day 1) was 30, the PCSS symptom vomiting (Day 1) was 2 and the “20% Responders - PCSS: Number of Responders” value (“20% Responders - PCSS: Number” below) (Day 1) was 0. For the same substance, the “20% Responders - PCSS: Responder %” value (Day 1) was 0%, the “30% Responders - PCSS: Number of Responders” value (from here on “30% Responders - PCSS: Number”) (Day 1) was 0 and the “30% Responders - PCSS: Responder %” value (Day 1) was 0%. The “PCSS symptom balance_problems” value (Day 4) was 25, the “PCSS symptom difficulty_concentrating” value (Day 4) was 37 and the “PCSS symptom difficulty_remembering” value (Day 4) was 35. The PCSS symptom dizziness (Day 4) was 35, the PCSS symptom drowsiness (Day 4) was 39 and the PCSS symptom fatigue (Day 4) was 44. The “PCSS symptom feeling_in_a_fog” value (Day 4) was 30, the “PCSS symptom feeling_more_emotional” value (Day 4) was 24 and the “PCSS symptom feeling_slowed_down” value (Day 4) was 33. For the same substance, the PCSS symptom headache (Day 4) was 29, the PCSS symptom irritability (Day 4) was 30 and the PCSS symptom nausea (Day 4) was 11. The “PCSS symptom neck_pain” value (Day 4) was 29, the “PCSS symptom nervous_anxious” value (Day 4) was 25 and the “PCSS symptom numbness_or_tingling” value (Day 4) was 6. The PCSS symptom sadness (Day 4) was 17, the “PCSS symptom sensitivity_to_light” value (Day 4) was 25 and the “PCSS symptom sensitivity_to_noise” value (Day 4) was 26. The “PCSS symptom sleeping_less_than_usual” value (Day 4) was 23, the “PCSS symptom sleeping_more_than_usual” value (Day 4) was 32 and the “PCSS symptom trouble_falling_asleep” value (Day 4) was 32. The “PCSS symptom visual_problems” value (Day 4) was 18, the PCSS symptom vomiting (Day 4) was 1 and the “20% Responders - PCSS: Number” value (Day 4) was 4. For the same substance, the “20% Responders - PCSS: Responder %” value (Day 4) was 31%, the “30% Responders - PCSS: Number” value (Day 4) was 3 and the “30% Responders - PCSS: Responder %” value (Day 4) was 23%. For the same substance, the “PCSS symptom balance_problems” value (Day 8) was 30, the “PCSS symptom difficulty_concentrating” value (Day 8) was 41 and the “PCSS symptom difficulty_remembering” value (Day 8) was 35. The PCSS symptom dizziness (Day 8) was 28, the PCSS symptom drowsiness (Day 8) was 41 and the PCSS symptom fatigue (Day 8) was 45. For the same substance, the “PCSS symptom feeling_in_a_fog” value (Day 8) was 34, the “PCSS symptom feeling_more_emotional” value (Day 8) was 33 and the “PCSS symptom feeling_slowed_down” value (Day 8) was 36. For the same substance, the PCSS symptom headache (Day 8) was 34, the PCSS symptom irritability (Day 8) was 36 and the PCSS symptom nausea (Day 8) was 15. The “PCSS symptom neck_pain” value (Day 8) was 26, the “PCSS symptom nervous_anxious” value (Day 8) was 34 and the “PCSS symptom numbness_or_tingling” value (Day 8) was 12. For the same substance, the PCSS symptom sadness (Day 8) was 32, the “PCSS symptom sensitivity_to_light” value (Day 8) was 20 and the “PCSS symptom sensitivity_to_noise” value (Day 8) was 23. For the same substance, the “PCSS symptom sleeping_less_than_usual” value (Day 8) was 32, the “PCSS symptom sleeping_more_than_usual” value (Day 8) was 20 and the “PCSS symptom trouble_falling_asleep” value (Day 8) was 32. For the same substance, the “PCSS symptom visual_problems” value (Day 8) was 23, the PCSS symptom vomiting (Day 8) was 1 and the “20% Responders - PCSS: Number” value (Day 8) was 3. The “20% Responders - PCSS: Responder %” value (Day 8) was 23%, the “30% Responders - PCSS: Number” value (Day 8) was 2 and the “30% Responders - PCSS: Responder %” value (Day 8) was 15%. For the same substance, the “PCSS symptom balance_problems” value (Day 11) was 24, the “PCSS symptom difficulty_concentrating” value (Day 11) was 23 and the “PCSS symptom difficulty_remembering” value (Day 11) was 28. The PCSS symptom dizziness (Day 11) was 18, the PCSS symptom drowsiness (Day 11) was 33 and the PCSS symptom fatigue (Day 11) was 36. The “PCSS symptom feeling_in_a_fog” value (Day 11) was 23, the “PCSS symptom feeling_more_emotional” value (Day 11) was 20 and the “PCSS symptom feeling_slowed_down” value (Day 11) was 27. It also gave a PCSS symptom headache (Day 11) of 21, a PCSS symptom irritability (Day 11) of 28 and a PCSS symptom nausea (Day 11) of 10. The “PCSS symptom neck_pain” value (Day 11) was 18, the “PCSS symptom nervous_anxious” value (Day 11) was 19 and the “PCSS symptom numbness_or_tingling” value (Day 11) was 5. The PCSS symptom sadness (Day 11) was 22, the “PCSS symptom sensitivity_to_light” value (Day 11) was 18 and the “PCSS symptom sensitivity_to_noise” value (Day 11) was 19. For the same substance, the “PCSS symptom sleeping_less_than_usual” value (Day 11) was 15, the “PCSS symptom sleeping_more_than_usual” value (Day 11) was 19 and the “PCSS symptom trouble_falling_asleep” value (Day 11) was 21. The “PCSS symptom visual_problems” value (Day 11) was 12, the PCSS symptom vomiting (Day 11) was 1 and the “20% Responders - PCSS: Number” value (Day 11) was 9. The “20% Responders - PCSS: Responder %” value (Day 11) was 69%.
